{"source": "patent US20210023065A1", "about": "“AMPHIPHILIC THIOL COMPOUNDS AND USES THEREOF” (THE REGENTS OF THE UNIVERSITY OF CALIFORNIA, priority 2018, published 2021)", "format_in_all_cases": "cell-based", "key": {"SNAP25": {"target": "T1, SNAP25 (Homo sapiens, UniProt P60880)", "T1 construct": "we detected the palmitoylation levels of eight known palmitoylated proteins after treatment with 1; endogenous in cells; host or cells: HeLa", "T1 sequence (P60880 whole entry)": "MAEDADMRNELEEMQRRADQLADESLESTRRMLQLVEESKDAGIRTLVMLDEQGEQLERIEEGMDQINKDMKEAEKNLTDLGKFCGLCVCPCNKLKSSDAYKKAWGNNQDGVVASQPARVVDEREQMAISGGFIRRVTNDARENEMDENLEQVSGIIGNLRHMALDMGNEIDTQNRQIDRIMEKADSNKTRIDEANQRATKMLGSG", "assay": "Acyl resin-assisted capture detection of SNAP25 palmitoylation in HeLa cells", "conditions": "1.25 μmol/10^7 cells, relative to vehicle", "experimental": "(§1) HeLa cells were grown to confluency in 10 cm plates. Stock solutions of compounds were prepared in DMSO as before and diluted to the final indicated concentration in 5.5 mL of OptiMEM media before adding to cells. Cells were incubated at 37° C. for 20 min and then media removed and 3 mL of HBSS added to each plate. Cells were detached using a cell scraper, pelleted by centrifugation at 1,000 rcf for 5 min and the pellet processed using a CAPTUREome S-Palmitoylated Protein Kit (Badrilla, UK) according to the manufacturer's protocol. Samples were resolved by electrophoresis using 4-20% SDS-polyacrylamide gels (Bio-Rad) under denaturing and reducing conditions. Proteins were then electrotransferred to a PVDF membrane (Bio-Rad). […]\n(§2) Assays were performed in 3 biological replicates. […] Western blots were analyzed using ImageJ^1. […]"}, "endogenous HRas": {"target": "T2, endogenous HRas (Homo sapiens, UniProt P01112)", "T2 construct": "endogenous in cells; host or cells: HeLa", "T2 sequence (P01112 whole entry)": "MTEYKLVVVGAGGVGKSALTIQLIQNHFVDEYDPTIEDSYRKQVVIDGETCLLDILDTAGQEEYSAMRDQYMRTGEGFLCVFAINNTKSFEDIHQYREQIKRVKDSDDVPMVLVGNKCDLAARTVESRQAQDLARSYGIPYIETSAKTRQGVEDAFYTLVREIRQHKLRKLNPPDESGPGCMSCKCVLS", "assay": "Acyl resin-assisted capture detection of HRas palmitoylation in HeLa cells", "conditions": "HeLa cells", "experimental": "HeLa cells were grown to confluency in 10 cm plates. Stock solutions of compounds were prepared in DMSO as before and diluted to the final indicated concentration in 5.5 mL of OptiMEM media before adding to cells. Cells were incubated at 37° C. for 20 min and then media removed and 3 mL of HBSS added to each plate. Cells were detached using a cell scraper, pelleted by centrifugation at 1,000 rcf for 5 min and the pellet processed using a CAPTUREome S-Palmitoylated Protein Kit (Badrilla, UK) according to the manufacturer's protocol. Samples were resolved by electrophoresis using 4-20% SDS-polyacrylamide gels (Bio-Rad) under denaturing and reducing conditions. Proteins were then electrotransferred to a PVDF membrane (Bio-Rad). The membrane was blocked with 3% BSA and then subjected to immunoblot analysis using Anti-GTPase HRAS antibody (ab97488) (Abcam), Calnexin Antibody (2433S) (Cell Signaling Technology), Gα(i) Antibody (5290S) (Cell Signaling Technology), SNAP25 Antibody (5308S) (Cell Signaling Technology), Flotillin-2 Antibody (3436S) (Cell Signaling Technology), CD44 Antibody (3570S) (Cell Signaling Technology), Lyric/Metadherin Antibody (14065S) (Cell Signaling Technology), Flotillin-1 Antibody (3253S) (Cell Signaling Technology) and secondary goat anti-rabbit IgG-HRP (sc-2030) (Santa Cruz Biotechnology) or goat anti-mouse IgG HRP (ThermoFisher). Chemiluminescent detection was performed by using SuperSignal West Pico PLUS chemiluminescent substrate (ThermoFisher) according to the manufacturer's instructions.\n(§3) Assays were performed in 3 biological replicates. Each replicate involved the analysis of 4 to 5 conditions side-by-side. Western blots were analyzed using ImageJ^1. The intensity of the protein band in each cleaved bound fraction (palmitoylated protein fraction) was normalized to the intensity of the corresponding input fraction (total protein fraction). The values within individual S 4 replicates were normalized to the control or vehicle condition and reported as means±SD. An unpaired t test was performed to determine the significance between means."}, "EGFP-KRas4b": {"system": "EGFP-KRas4b", "assay": "Live-cell imaging of EGFP-KRas4b localization in HeLa cells", "conditions": "1.25 μmol/10^7 cells", "experimental": "Imaging was performed on an Axio Observer Z1 inverted microscope (Carl Zeiss Microscopy Gmb, Germany) with Yokogawa CSU-X1 spinning disk confocal unit using a 63×, 1.4 NA oil immersion or 20×, 0.8 NA objective to an ORCA-Flash4.0 V2 Digital CMOS camera (Hamamatsu, Japan). For live cell imaging, an incubation chamber with temperature and CO2 controllers (World Precision Instruments) was utilized. Fluorophores were excited with s diode laser (488 nm; 30 mW). Images were acquired using Zen Blue software (Carl Zeiss) and processed using Image J.^1 HeLa cells were plated at 40,000 cells/well in an 8-well Lab-Tek chamber slide (ThermoFisher) and allowed to adhere overnight. Cells were transfected with mEGFP-HRas or mEGFP-KRas4b using Lipofectamine 2000 (ThermoFisher) according to the manufacturer's protocol. 50 mM stocks of compounds 1 and 2 were prepared by dissolving the solid compound in DMSO containing 100 mM tris(2-S 3 carboxyethyl)phosphine hydrochloride (TCEP) as a preservative. From these stocks, a solution of 200 μM [1 or 2] (with 400 μM TCEP), or 400 μM TCEP was prepared in OptiMEM media. Before imaging, cells were exchanged into OptiMEM media. The diluted solutions were added to the indicated final concentration within individual wells of the chamber slide and cells imaged while maintaining 37° C., 5% CO2 in the incubation chamber. […]"}, "GAP43": {"target": "T3, GAP43 (Homo sapiens, UniProt P17677)", "T3 construct": "Western blot detection of endogenous GAP43 in acyl resin-assisted capture fractions; host or cells: INCL human lymphoblasts", "T3 sequence (P17677 1-238)": "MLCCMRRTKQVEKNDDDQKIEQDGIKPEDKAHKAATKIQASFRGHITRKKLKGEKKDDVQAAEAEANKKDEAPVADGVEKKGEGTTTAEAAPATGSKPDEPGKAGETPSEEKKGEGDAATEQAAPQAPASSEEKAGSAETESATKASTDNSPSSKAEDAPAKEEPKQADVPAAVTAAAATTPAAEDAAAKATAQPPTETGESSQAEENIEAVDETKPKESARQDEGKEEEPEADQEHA", "assay": "Acyl resin-assisted capture detection of GAP43 palmitoylation in INCL lymphoblasts", "conditions": "0.05 μmol/10^7 cells, 24 h", "experimental": "INCL Lymphoblasts were adjusted to 1,000,000 cells/mL in 20 mL of OptiMem Media. Stock solutions of compounds were prepared in DMSO as before and diluted to the indicated final concentration in the cell suspension. […] Cells were pelleted by centrifugation at 1,000 rcf for 5 min and the pellet processed using a CAPTUREome S-Palmitoylated Protein Kit (Badrilla, UK) according to the manufacturer's protocol. Samples were resolved by electrophoresis using 4-20% SDS-polyacrylamide gels (Bio-Rad) under denaturing and reducing conditions. Proteins were then electrotransferred to a PVDF membrane (Bio-Rad). The membrane was blocked with 3% BSA and then subjected to immunoblot analysis using GAP-43 (B-5) Antibody (sc-17790) (Santa Cruz Biotechnology) and secondary antibody goat anti-mouse IgG HRP (ThermoFisher). Chemiluminescent detection was performed by using SuperSignal West Pico PLUS chemiluminescent substrate (ThermoFisher) according to the manufacturer's instructions.\nas §3"}, "CD44": {"target": "T4, CD44 (Homo sapiens, UniProt P16070)", "T4 construct": "we detected the palmitoylation levels of eight known palmitoylated proteins after treatment with 1; endogenous in cells; host or cells: HeLa", "T4 sequence (P16070 21-742)": "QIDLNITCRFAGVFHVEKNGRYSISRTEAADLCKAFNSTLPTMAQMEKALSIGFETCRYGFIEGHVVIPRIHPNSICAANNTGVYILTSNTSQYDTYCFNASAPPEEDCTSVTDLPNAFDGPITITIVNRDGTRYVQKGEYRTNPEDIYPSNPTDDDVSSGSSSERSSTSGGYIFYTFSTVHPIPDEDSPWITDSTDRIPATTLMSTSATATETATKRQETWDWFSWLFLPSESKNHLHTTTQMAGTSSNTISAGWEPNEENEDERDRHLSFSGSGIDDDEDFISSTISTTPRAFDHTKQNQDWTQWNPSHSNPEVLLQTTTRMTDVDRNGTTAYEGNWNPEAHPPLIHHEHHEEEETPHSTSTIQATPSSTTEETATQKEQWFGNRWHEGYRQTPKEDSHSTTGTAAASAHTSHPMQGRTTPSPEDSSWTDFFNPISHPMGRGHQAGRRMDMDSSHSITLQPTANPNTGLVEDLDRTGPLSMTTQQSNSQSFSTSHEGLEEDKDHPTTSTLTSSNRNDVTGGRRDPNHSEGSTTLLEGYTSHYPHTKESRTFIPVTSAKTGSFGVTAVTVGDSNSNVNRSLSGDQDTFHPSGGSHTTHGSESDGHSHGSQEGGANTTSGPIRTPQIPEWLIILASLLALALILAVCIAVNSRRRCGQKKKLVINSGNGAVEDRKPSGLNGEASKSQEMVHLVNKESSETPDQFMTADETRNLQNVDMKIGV", "assay": "Acyl resin-assisted capture detection of CD44 palmitoylation in HeLa cells", "conditions": "1.25 μmol/10^7 cells, relative to vehicle", "experimental": "as §1, §2"}}}
{"smiles": "CCCCCCCCNC(=O)[C@@H](N)CS", "note": "[compound 1, H2N-L-Cys-Oct]", "values": [{"measurement": "reduction of palmitoylation level of SNAP25", "setting": "SNAP25", "result": "> 80", "unit": "%"}, {"measurement": "reduction of palmitoylation level of HRas", "setting": "endogenous HRas; 1.25 μmol/10^7 cells, relative to vehicle", "result": "> 80", "unit": "%"}, {"measurement": "depalmitoylation of HRas in the presence of palmostatin B (PB)", "setting": "endogenous HRas; 1.25 μmol/10^7 cells, with APT-1/2 inhibitor PB", "result": "efficiently depalmitoylated HRas"}, {"measurement": "HRas palmitoylation over a range of concentrations", "setting": "endogenous HRas; 0.31-1.25 μmol/10^7 cells, 20 min", "result": "decreased in a dose-dependent manner"}, {"measurement": "depalmitoylation of HRas", "setting": "endogenous HRas; 20 min, 1 at 1.25 μmol/10^7 cells, same experiments with TCEP alone or compound 2", "result": "near complete depalmitoylation"}, {"measurement": "EGFP-KRas4b protein localization (fluorescence)", "setting": "EGFP-KRas4b", "result": "no change in protein localization"}, {"measurement": "level of GAP43 palmitoylation", "setting": "GAP43", "result": "significantly reduced"}, {"measurement": "reduction of palmitoylation level of CD44", "setting": "CD44", "result": "> 80", "unit": "%"}]}
